The source of these data is patent US8148391B2 (Cephalon, Inc., priority 2006, dated 2012).

Where two headings read alike, the source gives them in different places.

Assay [1] deals with T1, baculovirus-expressed ALK (Homo sapiens, UniProt Q9UM73).
T1 construct: host or cells: baculovirus expression system
Briefly: ALK Kinase Assay (ELISA-type, time-resolved fluorescence). It counts as biochemical. Particulars: 1 μM ATP (Km level); read-out: ALK Activity (ALK Kinase Inhibition, IC50). Summed up: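 Wells were coated with phospholipase C-γ at 10 μg/mL in Tris-buffered saline. Adding 30 ng/ml enzyme started the reaction, which ran at 37° C for 15 minutes before Eu-N1 PT66 antibody detection. Percent inhibition versus log10 concentration gave IC50 by variable-slope fit.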
(In general: In an ELISA, binding on a coated surface is turned into a signal by an enzyme label.)

Assay [2] deals with T2, c-Met (cytoplasmic domain) (Homo sapiens, UniProt P08581).
T2 construct: 10 ng/mL c-Met (cytoplasmic domain, Invitrogen Corporation #PV3143); purchased Invitrogen Corporation PV3143
Briefly: c-Met Kinase Assay (same methods as for ALK, with modifications). It counts as biochemical. The note with it: 1 μM ATP (Km level). Summed up:
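Steps: coat wells with PLC-γ (10 μg/mL, Tris-buffered saline); add 10 ng/mL c-Met cytoplasmic domain to initiate; incubate 15 min, 37° C; detect phosphoproduct via Eu-N1 PT66 antibody.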

Where [3] appears, read: read-out: cMet Activity (c-Met Kinase Inhibition, IC50).
Setting [4] is: cMet Activity (c-Met Kinase Inhibition, IC50).

T2 sequence (P08581 956-1390 limits assumed): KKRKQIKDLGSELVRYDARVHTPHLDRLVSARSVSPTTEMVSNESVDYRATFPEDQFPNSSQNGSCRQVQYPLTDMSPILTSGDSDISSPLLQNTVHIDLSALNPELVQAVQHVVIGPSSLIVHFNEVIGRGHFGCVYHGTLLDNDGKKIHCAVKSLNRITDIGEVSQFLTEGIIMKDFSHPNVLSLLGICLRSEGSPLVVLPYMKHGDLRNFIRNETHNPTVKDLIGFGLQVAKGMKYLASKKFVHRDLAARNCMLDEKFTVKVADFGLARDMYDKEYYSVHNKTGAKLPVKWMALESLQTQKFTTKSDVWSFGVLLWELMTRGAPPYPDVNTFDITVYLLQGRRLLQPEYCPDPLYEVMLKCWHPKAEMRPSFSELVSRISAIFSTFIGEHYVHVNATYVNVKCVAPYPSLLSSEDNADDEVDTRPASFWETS
T1 sequence (Q9UM73 19-1620): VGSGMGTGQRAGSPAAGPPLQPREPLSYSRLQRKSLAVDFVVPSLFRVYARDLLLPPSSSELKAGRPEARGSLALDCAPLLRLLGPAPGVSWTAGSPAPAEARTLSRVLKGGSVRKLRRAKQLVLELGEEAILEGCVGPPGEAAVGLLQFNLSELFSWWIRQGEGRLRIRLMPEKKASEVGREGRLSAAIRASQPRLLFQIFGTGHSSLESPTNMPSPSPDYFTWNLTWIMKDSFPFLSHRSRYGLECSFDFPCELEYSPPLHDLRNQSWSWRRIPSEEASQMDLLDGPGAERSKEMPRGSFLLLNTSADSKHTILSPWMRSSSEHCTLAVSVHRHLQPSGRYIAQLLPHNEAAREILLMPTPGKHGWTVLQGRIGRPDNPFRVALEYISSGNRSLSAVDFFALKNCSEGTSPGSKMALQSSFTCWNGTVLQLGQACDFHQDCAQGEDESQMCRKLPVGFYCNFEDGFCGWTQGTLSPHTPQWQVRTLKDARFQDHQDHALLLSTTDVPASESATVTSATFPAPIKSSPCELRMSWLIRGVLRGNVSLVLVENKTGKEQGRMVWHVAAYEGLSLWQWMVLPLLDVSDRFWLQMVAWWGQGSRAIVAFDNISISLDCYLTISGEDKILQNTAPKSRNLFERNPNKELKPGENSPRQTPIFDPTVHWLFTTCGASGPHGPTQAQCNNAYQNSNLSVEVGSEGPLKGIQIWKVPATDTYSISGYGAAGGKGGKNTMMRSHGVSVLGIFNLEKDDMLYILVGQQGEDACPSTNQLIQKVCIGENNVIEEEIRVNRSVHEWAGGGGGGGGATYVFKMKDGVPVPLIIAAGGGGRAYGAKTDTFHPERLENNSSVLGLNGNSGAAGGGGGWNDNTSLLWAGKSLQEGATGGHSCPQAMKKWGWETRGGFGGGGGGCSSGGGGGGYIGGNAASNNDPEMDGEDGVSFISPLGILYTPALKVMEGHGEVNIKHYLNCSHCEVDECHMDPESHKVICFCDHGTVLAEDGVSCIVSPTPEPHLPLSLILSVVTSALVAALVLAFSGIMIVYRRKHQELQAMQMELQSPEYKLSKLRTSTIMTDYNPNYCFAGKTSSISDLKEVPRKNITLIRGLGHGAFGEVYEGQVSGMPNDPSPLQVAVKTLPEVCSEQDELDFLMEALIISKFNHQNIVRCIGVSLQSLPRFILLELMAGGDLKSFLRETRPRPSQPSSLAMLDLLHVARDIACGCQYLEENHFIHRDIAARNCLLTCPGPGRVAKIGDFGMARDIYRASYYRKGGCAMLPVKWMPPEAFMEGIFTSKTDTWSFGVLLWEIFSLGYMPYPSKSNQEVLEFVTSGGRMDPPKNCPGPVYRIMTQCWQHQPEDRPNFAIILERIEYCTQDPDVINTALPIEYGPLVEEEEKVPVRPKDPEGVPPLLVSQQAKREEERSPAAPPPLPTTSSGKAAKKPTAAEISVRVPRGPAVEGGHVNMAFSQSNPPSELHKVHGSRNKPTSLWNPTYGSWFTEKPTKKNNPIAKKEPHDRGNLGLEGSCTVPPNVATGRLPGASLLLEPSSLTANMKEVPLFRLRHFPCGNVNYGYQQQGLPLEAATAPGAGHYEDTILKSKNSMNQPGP

As to `CC1(C)CCCOc2c(Nc3ncc(Cl)c(Nc4ccccc4C(=O)NCCC#N)n3)cccc21` [Example 877, 2-[5-Chloro-2-(5,5-dimethyl-2,3,4,5-tetrahydro-benzo[b]oxepin-9-ylamino)-pyrimidin-4-ylamino]-N-(2-cyano-ethyl)-benzamide], the IC50 – broadly, the concentration at which inhibition is half-maximal – was 0.1 to 1 µM in assay [1] and more than 10 µM in assay [2] (setting [3]).

For `CC(C)S(=O)(=O)c1ccccc1Nc1nc(Nc2cccc3c2OCCCC3(C)C)ncc1Cl` [Example 878, 5-Chloro-N*2*-(5,5-dimethyl-2,3,4,5-tetrahydro-benzo[b]oxepin-9-yl)-N*4*-[2-(propane-2-sulfonyl)-phenyl]-pyrimidine-2,4-diamine], the IC50 in assay [1] was 0.1 to 1 µM; in assay [2] (setting [3]) it was more than 10 µM.

`Cn1ccnc1-c1ccccc1Nc1nc(Nc2cccc3c2OCCCC3(C)C)ncc1Cl` [Example 879, 5-Chloro-N*2*-(5,5-dimethyl-2,3,4,5-tetrahydro-benzo[b]oxepin-9-yl)-N*4*-[2-(1-methyl-1H-imidazol-2-yl)-phenyl]-pyrimidine-2,4-diamine]: the IC50 was 0.1 to 1 µM in assay [1] and more than 10 µM in assay [2] (setting [3]).

In the case of `CC1(C)CCCOc2c(Nc3ncc(Cl)c(Nc4ccccc4OCC#N)n3)cccc21` [Example 880, {2-[5-Chloro-2-(5,5-dimethyl-2,3,4,5-tetrahydro-benzo[b]oxepin-9-ylamino)-pyrimidin-4-ylamino]-phenoxy}-acetonitrile], the results for the IC50 in assay [1] and in assay [2] (setting [3]) were 1 to 10 µM and more than 10 µM, respectively.

Consider `COc1c(Nc2ncc(Cl)c(N[C@H]3[C@@H](C(N)=O)[C@@H]4C=C[C@H]3C4)n2)ccc2c1CC[C@H](N1CCOCC1)CC2` [Example 881, (1S,2S,3R,4R)-3-[5-Chloro-2-((R)-1-methoxy-7-morpholin-4-yl-6,7,8,9-tetrahydro-5H-benzocyclohepten-2-ylamino)-pyrimidin-4-ylamino]-bicyclo[2.2.1]hept-5-ene-2-carboxylic acid amide], for which the IC50 in assay [1] was less than 0.1 µM; in assay [2] (setting [4]), more than 10 µM.

Turning to `COc1c(Nc2ncc(Cl)c(N[C@H]3[C@@H](C(N)=O)[C@@H]4C=C[C@H]3C4)n2)ccc2c1CC[C@@H](N1CCOCC1)CC2` [Example 882, (1S,2S,3R,4R)-3-[5-Chloro-2-((S)-1-methoxy-7-morpholin-4-yl-6,7,8,9-tetrahydro-5H-benzocyclohepten-2-ylamino)-pyrimidin-4-ylamino]-bicyclo[2.2.1]hept-5-ene-2-carboxylic acid amide], the half-inhibitory concentration (IC50) is less than 0.1 µM in assay [1] and more than 10 µM in assay [2] (setting [4]).

Take `COc1c(Nc2ncc(Cl)c(Nc3ccccc3S(=O)(=O)C(C)C)n2)ccc2c1CCC(N1CCOCC1)CC2` (stereo not shown) [Example 883, 5-Chloro-N*2*-(1-methoxy-7-morpholin-4-yl-6,7,8,9-tetrahydro-5H-benzocyclohepten-2-yl)-N*4*-[2-(propane-2-sulfonyl)-phenyl]-pyrimidine-2,4-diamine]: the IC50 in assay [1] was less than 0.1 µM; in assay [2] (setting [3]), 1 to 10 µM.

For `CC1(C)CCCOc2c(Nc3ncc(Cl)c(Nc4ccccc4-n4cccn4)n3)cccc21` [Example 885, 5-Chloro-N*2*-(5,5-dimethyl-2,3,4,5-tetrahydro-benzo[b]oxepin-9-yl)-N*4*-(2-pyrazol-1-yl-phenyl)-pyrimidine-2,4-diamine], the IC50 in assay [1] is 0.1 to 1 µM; in assay [2] (setting [3]), more than 10 µM.

As to `CN1CCN(C2CCN(C3CCc4ccc(Nc5ncc(Cl)c(N[C@@H]6CCCC[C@H]6NS(C)(=O)=O)n5)cc4CC3)CC2)CC1` (stereo partly drawn) [Example 886, N-[(1R,2R)-2-(5-Chloro-2-{7-[4-(4-methyl-piperazin-1-yl)-piperidin-1-yl]-6,7,8,9-tetrahydro-5H-benzocyclohepten-2-ylamino}-pyrimidin-4-ylamino)-cyclohexyl]-methanesulfonamide], the IC50 in assay [1] is less than 0.1 µM; in assay [2] (setting [3]) it was 1 to 10 µM.

As for `CN1CCN(C2CCN(C3CCc4ccc(Nc5ncc(Cl)c(N[C@H]6[C@@H](C(N)=O)[C@@H]7C=C[C@H]6C7)n5)cc4CC3)CC2)CC1` (stereo partly drawn) [Example 887, (1S,2S,3R,4R)-3-(5-Chloro-2-{7-[4-(4-methyl-piperazin-1-yl)-piperidin-1-yl]-6,7,8,9-tetrahydro-5H-benzocyclohepten-2-ylamino}-pyrimidin-4-ylamino)-bicyclo[2.2.1]hept-5-ene-2-carboxylic acid amide], the IC50 in assay [1] was less than 0.1 µM; in assay [2] (setting [3]), 0.1 to 1 µM.

On to `CN1CCN(C2CCc3ccc(Nc4ncc(Cl)c(N[C@@H]5CCCC[C@H]5NS(C)(=O)=O)n4)cc3CC2)CC1` (stereo partly drawn) [Example 888, N-((1R,2R)-2-{5-Chloro-2-[7-(4-methyl-piperazin-1-yl)-6,7,8,9-tetrahydro-5H-benzocyclohepten-2-ylamino]-pyrimidin-4-ylamino}-cyclohexyl)-methanesulfonamide], for which the IC50 in assay [1] was less than 0.1 µM; in assay [2] (setting [3]) it was 1 to 10 µM.

In the case of `COc1c(Nc2ncc(Cl)c(Nc3ccccc3S(=O)(=O)N(C)C)n2)ccc2c1CCC(N1CCOCC1)CC2` (stereo not shown) [Example 889, 2-[5-Chloro-2-(1-methoxy-7-morpholin-4-yl-6,7,8,9-tetrahydro-5H-benzocyclohepten-2-ylamino)-pyrimidin-4-ylamino]-N,N-dimethyl-benzenesulfonamide], the IC50 was less than 0.1 µM in assay [1] and 1 to 10 µM in assay [2] (setting [3]).

For the compound `CN1CCN(C2CCc3ccc(Nc4ncc(Cl)c(Nc5ccccc5S(=O)(=O)N(C)C)n4)cc3CC2)CC1` (stereo not shown) [Example 890, 2-{5-Chloro-2-[7-(4-methyl-piperazin-1-yl)-6,7,8,9-tetrahydro-5H-benzocyclohepten-2-ylamino]-pyrimidin-4-ylamino}-N,N-dimethyl-benzenesulfonamide], the IC50 was less than 0.1 µM in assay [1] and 0.1 to 1 µM in assay [2] (setting [3]).

For the compound `COc1ccccc1Nc1nc(Nc2ccc3c(c2)CCC(N2CCN(C)CC2)CC3)ncc1Cl` (stereo not shown) [Example 891, 5-Chloro-N*4*-(2-methoxy-phenyl)-N*2*-[7-(4-methyl-piperazin-1-yl)-6,7,8,9-tetrahydro-5H-benzocyclohepten-2-yl]-pyrimidine-2,4-diamine], the IC50 in assay [1] was less than 0.1 µM; in assay [2] (setting [3]) it was 1 to 10 µM.

`CN1CCN(C2CCc3ccc(Nc4ncc(Cl)c(N[C@H]5[C@@H](C(N)=O)[C@@H]6C=C[C@H]5C6)n4)cc3CC2)CC1` (stereo partly drawn) [Example 892, (1S,2S,3R,4R)-3-{5-Chloro-2-[7-(4-methyl-piperazin-1-yl)-6,7,8,9-tetrahydro-5H-benzocyclohepten-2-ylamino]-pyrimidin-4-ylamino}-bicyclo[2.2.1]hept-5-ene-2-carboxylic acid amide]: the IC50 in assay [1] is less than 0.1 µM; in assay [2] (setting [3]), 1 to 10 µM.

`COc1cc(N2CCOCC2)ccc1Nc1nc(Nc2ccc3c(c2OC)CCC(N2CCOCC2)CC3)ncc1Cl` (stereo not shown) [Example 894, 5-Chloro-N*4*-(2-methoxy-4-morpholin-4-yl-phenyl)-N*2*-(1-methoxy-7-morpholin-4-yl-6,7,8,9-tetrahydro-5H-benzocyclohepten-2-yl)-pyrimidine-2,4-diamine]: the IC50 in assay [1] was less than 0.1 µM; in assay [2] (setting [3]), more than 10 µM.

In the case of `COCCNC1CCc2cc(Nc3ncc(Cl)c(N[C@@H]4CCCC[C@H]4NS(C)(=O)=O)n3)c(OC)cc2CC1` (stereo partly drawn) [Example 895, N-((1R,2R)-2-{5-Chloro-2-[3-methoxy-7-(2-methoxy-ethylamino)-6,7,8,9-tetrahydro-5H-benzocyclohepten-2-ylamino]-pyrimidin-4-ylamino}-cyclohexyl)-methanesulfonamide], the IC50 in assay [1] was less than 0.1 µM; in assay [2] (setting [3]), more than 10 µM.
